Laboratory results from article PMC7508628, “Targeting the Respiratory Syncytial Virus N^0-P Complex with Constrained α-Helical Peptides in Cells and Mice” (Antimicrobial Agents and Chemotherapy, 2020).
Where a SMILES comes first, the peptide text is derived from it. Bridges are numbered along the chain shown (N, C = ends). [ ]: non-standard residue; d: D form. R8 = C=CCCCCCC[C@@](C)(N)C(=O)O; R5 = C=CCCC[C@@](C)(N)C(=O)O; S5 = C=CCCC[C@](C)(N)C(=O)O

Legend:
[1] = target: monomeric N protein (N^mono), recombinant N^K170A/R185A (Human respiratory syncytial virus A, UniProt P03418, K170A/R185A); test: Fluorescence polarization competition assay: displacement of FAM–P(1–40) from monomeric N; type: binding; details: FP competition with FAM–P(1–40) probe
monomeric N protein (N^mono), recombinant N^K170A/R185A, sequence (P03418 whole entry K170A/R185A, looked up): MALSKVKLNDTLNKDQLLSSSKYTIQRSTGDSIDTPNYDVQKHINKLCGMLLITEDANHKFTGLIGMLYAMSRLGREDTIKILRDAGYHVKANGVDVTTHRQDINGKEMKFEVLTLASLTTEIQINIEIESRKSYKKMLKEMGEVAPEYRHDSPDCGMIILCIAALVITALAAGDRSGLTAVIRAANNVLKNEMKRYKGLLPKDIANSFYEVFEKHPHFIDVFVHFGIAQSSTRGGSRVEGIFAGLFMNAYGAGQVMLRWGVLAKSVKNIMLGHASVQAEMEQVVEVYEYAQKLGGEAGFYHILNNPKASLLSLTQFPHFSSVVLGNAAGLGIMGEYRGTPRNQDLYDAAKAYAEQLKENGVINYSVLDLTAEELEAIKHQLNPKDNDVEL

[2] = Circular dichroism spectroscopy, α-helical content; type: physicochemical; details: CD, 10 mM phosphate buffer pH 7.5, 50 μM peptide, 25°C, calculated from ellipticity at 222 nm; average of three measurements
Method: The α-helical stabilization appeared to be higher for the i, i + 7 staples overall.
The circular dichroism spectra were acquired on a Chirascan spectropolarimeter. The samples were prepared in 10 mM phosphate buffer, pH 7.5, at a peptide concentration of 50 μM. Data were recorded at 25°C by step scan from 180 nm to 260 nm in a 0.5-mm-pathlength quartz cell using 0.2-nm-wavelength increments, a 1-nm bandwidth, and a response time of 1 s. Each spectrum was an average of three measurements and was subtracted from the buffer baseline. The data were converted to per residue molar ellipticity units (θ; in degrees · square centimeters · decimoles^−1 · number of residues^−1) and smoothed using Igor Pro software. Percent helicity was calculated as follows: (100 × CD222)/(C × N × {40,000 × [1 − (2.5/N)]}), where CD222 is the molar ellipticity (θ) at 222 nm (in millidegrees), N is the number of amino acids in the peptide, and C is the peptide molar concentration (in moles per liter).

circular dichroism = details: 10 mM phosphate; pH 7.5; 25 °C; 50 uM
rHRSV-mCherry = details: read-out: EC50 (half-maximal response inhibitory concentration), inhibition of RSV infection; HEp-2 cells, MOI 0.2, peptides added after 2 h infection, mCherry fluorescence at 48 h postinfection; duplicates
BALB/c mice = test: In vivo toxicity assessment in uninfected BALB/c mice
HEp-2 cells = test: HEp-2 cell viability (CellTiter-Glo luminescent cell viability assay); details: peptide alone at 50 μM; duplicates
Method: (B) HEp-2 cell viability upon treatment with peptides alone at peptide concentrations of 50, 25, and 12.5 μM. Error bars are standard deviations from duplicates. Data are representative of those from two independent experiments.
Cytotoxicity assays were done with the CellTiter-Glo luminescent cell viability assay (Promega). Each experiment was performed in duplicate and repeated at least twice.

rHRSV-Luc = test: Mouse RSV infection model (rHRSV-Luc, bioluminescence, lung histology)
[3] = 2 dpi, one i.n. treatment 50 μl at 215 μM, 1 × 10^5 PFU rHRSV-Luc, n = 5
[4] = 4 dpi, i.n. treatment at day 0 and 2 dpi, n = 5, Mann-Whitney test

| SMILES | Competitive binding to N^mono (in words) [1] | % helicity [2] | helicity (circular dichroism) | EC50 (rHRSV-mCherry) | Toxicity for uninfected HEp-2 cells (cell viability) (HEp-2 cells) | other results |
| --- | --- | --- | --- | --- | --- | --- |
| CC[C@H](C)[C@H](NC(=O)[C@H](CO)NC(=O)[C@H](CCC(=O)O)NC(=O)[C@H](CC(C)C)NC(=O)[C@H](Cc1ccccc1)NC(=O)[C@H](CCCCN)NC(=O)[C@]1(C)CCCC=CCCC[C@@](C)(NC(=O)[C@H](CC(N)=O)NC(=O)[C@H](C)NC(=O)[C@H](CC(=O)O)NC(=O)[C@H](CCC(=O)O)NC(C)=O)C(=O)N[C@@H](CCCCN)C(=O)N[C@@H](C)C(=O)N1)C(=O)N[C@@H](CCCCN)C(=O)NCC(=O)N[C@@H](CCCCN)C(=O)N[C@@H](Cc1ccccc1)C(=O)N[C@@H](C)C(=O)N[C@@H](CO)C(N)=O [1a] (Ac-EDAN[R5]KA[S5]KFLESIKGKFAS-NH2; staple 5-8) | detrimental to the binding | 5.5% | 5.5% |  |  |  |
| CC(=O)N[C@@H](CCC(=O)O)C(=O)N[C@@H](CC(=O)O)C(=O)N[C@@H](C)C(=O)N[C@@H](CC(N)=O)C(=O)N[C@@H](CC(N)=O)C(=O)N[C@@H](CCCCN)C(=O)N[C@@H](C)C(=O)N[C@H](C(=O)N[C@@H](CCCCN)C(=O)N[C@@H](Cc1ccccc1)C(=O)N[C@]1(C)CCCC=CCCC[C@@](C)(C(=O)N[C@@H](CCCCN)C(=O)NCC(=O)N[C@@H](CCCCN)C(=O)N[C@@H](Cc2ccccc2)C(=O)N[C@@H](C)C(=O)N[C@@H](CO)C(N)=O)NC(=O)[C@H](CO)NC(=O)[C@H](CCC(=O)O)NC1=O)[C@@H](C)O [1d] (Ac-EDANNKATKF[R5]ES[S5]KGKFAS-NH2; staple 11-14) | no competition could be observed | 24.2% | 24.2% |  |  |  |
| CC[C@H](C)[C@H](NC(=O)[C@H](CO)NC(=O)[C@H](CCC(=O)O)NC(=O)[C@H](CC(C)C)NC(=O)[C@H](Cc1ccccc1)NC(=O)[C@H](CCCCN)NC(=O)[C@@H](NC(=O)[C@H](C)NC(=O)[C@H](CCCCN)NC(=O)[C@H](CC(N)=O)NC(=O)[C@H](CC(N)=O)NC(=O)[C@H](C)NC(=O)[C@H](CC(=O)O)NC(=O)[C@H](CCC(=O)O)NC(C)=O)[C@@H](C)O)C(=O)N[C@@H](CCCCN)C(=O)NCC(=O)N[C@]1(C)CCCC=CCCC[C@@](C)(C(N)=O)NC(=O)[C@H](C)NC(=O)[C@H](Cc2ccccc2)NC1=O [1g] (Ac-EDANNKATKFLESIKG[R5]FA[S5]-NH2; staple 17-20) | detrimental to the binding | 25.5% | 25.5% |  |  |  |
| CC(=O)N[C@@H](CCC(=O)O)C(=O)N[C@@H](CC(=O)O)C(=O)N[C@@H](C)C(=O)N[C@@H](CC(N)=O)C(=O)N[C@@H](CC(N)=O)C(=O)N[C@@H](CCCCN)C(=O)N[C@@H](C)C(=O)N[C@H](C(=O)N[C@@H](CCCCN)C(=O)N[C@@]1(C)CCCC=CCCC[C@@](C)(C(=O)N[C@@H](CCCCN)C(=O)NCC(=O)N[C@@H](CCCCN)C(=O)N[C@@H](Cc2ccccc2)C(=O)N[C@@H](C)C(=O)N[C@@H](CO)C(N)=O)NC(=O)[C@H](CO)NC(=O)[C@H](CCC(=O)O)NC(=O)[C@H](CC(C)C)NC1=O)[C@@H](C)O [2d] (Ac-EDANNKATK[S5]LES[S5]KGKFAS-NH2; staple 10-14) | no competition could be observed | 10.1% | 10.1% |  |  |  |
| CC[C@H](C)[C@H](NC(=O)[C@]1(C)CCCC=CCCCCCC[C@@](C)(NC(=O)[C@H](CC(N)=O)NC(=O)[C@H](CC(N)=O)NC(=O)[C@H](C)NC(=O)[C@]2(C)CCCC=CCCC[C@@](C)(NC(=O)[C@H](Cc3ccccc3)NC(=O)[C@H](CCC(=O)O)NC(C)=O)C(=O)NCC(=O)N[C@@H](CCC(=O)O)C(=O)N2)C(=O)N[C@@H](C)C(=O)N[C@@H]([C@@H](C)O)C(=O)N[C@@H](CCCCN)C(=O)N[C@@H](Cc2ccccc2)C(=O)N[C@@H](CC(C)C)C(=O)N[C@@H](CCC(=O)O)C(=O)N1)C(=O)N[C@@H](CCCCN)C(=O)NCC(=O)N[C@@H](CCCCN)C(=O)N[C@@H](Cc1ccccc1)C(=O)N[C@@H](C)C(=O)N[C@@H](CO)C(N)=O [4a3b] (Ac-EF[R5]GE[S5]ANN[R8]ATKFLE[S5]IKGKFAS-NH2; staple 3-6, 10-17) | inactive | 73.2% |  | 14.6 ± 13.9 µM |  |  |
| CC[C@H](C)[C@H](NC(=O)[C@]1(C)CCCC=CCCCCCC[C@@](C)(NC(=O)[C@H](CCC(=O)O)NC(=O)[C@H](CC(N)=O)NC(=O)[C@H](C)NC(=O)[C@]2(C)CCCC=CCCC[C@@](C)(NC(=O)[C@H](Cc3ccccc3)NC(=O)[C@H](CCC(=O)O)NC(C)=O)C(=O)NCC(=O)N[C@@H](CCC(=O)O)C(=O)N2)C(=O)N[C@@H](C)C(=O)N[C@@H]([C@@H](C)O)C(=O)N[C@@H](CCCCN)C(=O)N[C@@H](Cc2ccccc2)C(=O)N[C@@H](CC(C)C)C(=O)N[C@@H](CCC(=O)O)C(=O)N1)C(=O)N[C@@H](CCCCN)C(=O)N[C@@H](CCCCN)C(=O)N[C@@H](CCCCN)C(=O)N[C@@H](Cc1ccccc1)C(=O)N[C@@H](C)C(=O)N[C@@H](CO)C(N)=O [5a] (Ac-EF[R5]GE[S5]ANE[R8]ATKFLE[S5]IKKKFAS-NH2; staple 3-6, 10-17) |  | >100% |  | 18.4 ± 9.3 µM | no toxicity | Animals with focal lesions of the pulmonary parenchyma with infiltration by neutrophils (histology) (BALB/c mice; BALB/c mice n = 5, i.n. 50 μl at 215 μM at days 0 and 2, day 4, HES staining): 3 of the 5; Macroscopic lung examination (BALB/c mice; BALB/c mice n = 5, i.n. 50 μl at 215 μM at days 0 and 2, lungs collected at day 4): no macroscopic sign of toxicity; Body weight monitoring, signs of toxicity (BALB/c mice; BALB/c mice n = 5, i.n. 50 μl at 215 μM in PBS at days 0 and 2, days 0 to 4): did not reveal any signs of toxicity; Reduction in the level of RSV replication in the noses versus untreated mice (rHRSV-Luc; [3]): 2 fold; Whole luminescence signal versus untreated infected mice (rHRSV-Luc; [3]): no significant difference; Intensity of interstitial pneumonia (lung histology) (rHRSV-Luc; 4 dpi, HES staining, versus RSV-infected PBS mice): decreased; Animals with vascular and bronchial lesions (lung histology) (rHRSV-Luc; 4 dpi, HES staining, all 5 untreated infected animals showed lesions): 2 out of 5; Amount of bioluminescence versus untreated control group (rHRSV-Luc; [4]): significant reduction; Bioluminescence in the lungs versus untreated RSV-infected mice (rHRSV-Luc; [4]): significantly reduced; Body weight of RSV-infected treated animals (rHRSV-Luc; daily monitoring, i.n. treatment at day 0 and 2 dpi, n = 5): statistically nonsignificant loss of weight |
| CC[C@H](C)[C@H](NC(=O)[C@]1(C)CCCC=CCCCCCC[C@@](C)(NC(=O)[C@H](CCC(=O)O)NC(=O)[C@H](CC(N)=O)NC(=O)[C@H](C)NC(=O)[C@]2(C)CCCC=CCCC[C@@](C)(NC(=O)[C@H](Cc3ccccc3)NC(=O)[C@H](CCC(=O)O)NC(C)=O)C(=O)NCC(=O)N[C@@H](CCC(=O)O)C(=O)N2)C(=O)N[C@@H](C)C(=O)N[C@@H]([C@@H](C)O)C(=O)N[C@@H](CCCCN)C(=O)N[C@@H](Cc2ccccc2)C(=O)N[C@@H](CC(C)C)C(=O)N[C@@H](C)C(=O)N1)C(=O)N[C@@H](CCCCN)C(=O)NCC(=O)N[C@@H](CCCCN)C(=O)N[C@@H](Cc1ccccc1)C(=O)N[C@@H](C)C(=O)N[C@@H](CO)C(N)=O [5b] (Ac-EF[R5]GE[S5]ANE[R8]ATKFLA[S5]IKGKFAS-NH2; staple 3-6, 10-17) |  | >100% |  | 16.9 ± 5.1 µM | some toxicity |  |
| CC[C@H](C)[C@H](NC(=O)[C@]1(C)CCCC=CCCCCCC[C@@](C)(NC(=O)[C@H](CC(N)=O)NC(=O)[C@H](CC(N)=O)NC(=O)[C@H](C)NC(=O)[C@]2(C)CCCC=CCCC[C@@](C)(NC(=O)[C@H](Cc3ccccc3)NC(=O)[C@H](CCC(=O)O)NC(C)=O)C(=O)NCC(=O)N[C@@H](CCC(=O)O)C(=O)N2)C(=O)N[C@@H](C)C(=O)N[C@@H]([C@@H](C)O)C(=O)N[C@@H](CCC(=O)O)C(=O)N[C@@H](Cc2ccccc2)C(=O)N[C@@H](CC(C)C)C(=O)N[C@@H](CCCCN)C(=O)N1)C(=O)N[C@@H](CCCCN)C(=O)NCC(=O)N[C@@H](CCCCN)C(=O)N[C@@H](Cc1ccccc1)C(=O)N[C@@H](C)C(=O)N[C@@H](CO)C(N)=O [5c] (Ac-EF[R5]GE[S5]ANN[R8]ATEFLK[S5]IKGKFAS-NH2; staple 3-6, 10-17) |  | 79.7% |  | 18.5 ± 10.6 µM | no toxicity |  |
